Data taken from patent US20250122171A1, “Substituted Amine Compounds, Compositions and Methods of Use” (Deep Apple Therapeutics, Inc., priority 2023, published 2025).

These compounds were tested against T1, human MRGPRX2 (Homo sapiens, UniProt Q96LB1) (assay: MRGPRX2 Activity Assay (IP-1 HTRF, antagonist mode)). Details: FlpIn TRex-MRGPRX2-HEK293 cells; versus 1 μM Cortistatin-14 agonist; 30 minutes preincubation.
T1 construct: expressed in transfected cells; host or cells: FlpIn TRex HEK293 (TRex-MRGPRX2-HEK), doxycycline-induced
T1 sequence (Q96LB1 1-330): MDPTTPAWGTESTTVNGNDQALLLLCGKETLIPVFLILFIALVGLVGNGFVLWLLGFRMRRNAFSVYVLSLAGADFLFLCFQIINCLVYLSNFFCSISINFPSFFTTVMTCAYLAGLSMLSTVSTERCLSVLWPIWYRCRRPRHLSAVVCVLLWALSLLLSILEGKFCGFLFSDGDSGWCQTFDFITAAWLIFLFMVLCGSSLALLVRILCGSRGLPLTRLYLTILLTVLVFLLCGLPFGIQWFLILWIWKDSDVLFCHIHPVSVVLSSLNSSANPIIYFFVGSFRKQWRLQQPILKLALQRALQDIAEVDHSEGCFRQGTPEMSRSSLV
Format: cell-based
Description: FlpIn TRex-MRGPRX2-HEK293 cells (herein TRex-MRPGRX2-HEK) stably transfected to express human MRGPRX2 were maintained at 37° C. with 5% CO2 and grown in DMEM supplemented with 10% FBS, 1% L-Glutamate, 1% penicillin/streptomycin, 100 ug/mL Hygromycin B, and 15 ug/mL Blasticidin.
GOI (MRGPRX2) expression was induced with 100 ng/mL of Doxycycline 18-24 hours prior to experiment, in flask. On the day of experiment, cells were lifted with TripLE Express and seeded in 384-well white walled opaque bottomed, assay plates, at 8,000 cells per well in 5 uL freshly made assay buffer (HBSS, 20 mM HEPES, 0.1% BSA and 10 mM LiCl). Compounds solubilized in 100% DMSO at 30 mM were serially diluted (1:4) first in 100% DMSO, and an intermediate plate of assay buffer was used to establish a final top concentration of 30 uM (in assay plate). Final DMSO concentration was kept constant at 1% across assay plates. […], at 30 mM stock concentration was solubilized in HBSS+0.1% BSA, stored at −20° C. in 5 μL aliquots and discarded after one freeze-thaw cycle. […].
Antagonist equilibrium was established with 30 minutes preincubation, followed by no wash, direct addition, and stimulation of agonist for 1 hour at 37° C./5% CO2. IP-1 standards and HTRF detection reagents were added according to the IP-one Gq kit protocol purchased from CisBio (part number 62IPAPEJ). The plate was read on an EnVision XCite plate reader. The HTRF ratio was then calculated from raw data (channel1/channel2×10,000) and analyzed using either GraphPad Prism or a custom Python script to calculate IC50 using Log[Antagonist] vs. response (4 parameter) nonlinear regression.

Compound | IC50
C[C@@H](C(=O)Nc1cn(Cc2ccc(F)c(F)c2F)cn1)N1CCC(F)(F)[C@@H](c2cc[n+]([O-])cc2)C1 [Compound 42, 4-((S)-4,4-difluoro-1-((S)-1-oxo-1-((1-(2,3,4-trifluorobenzyl)-1H-imidazol-4-yl)amino)propan-2-yl)piperidin-3-yl)pyridine 1-oxide] | 169 nM
C[C@@H](C(=O)Nc1cn(Cc2cccc(Cl)c2)cn1)N1CCC(F)(F)[C@@H](c2cc[n+]([O-])cc2)C1 [Compound 43, 4-((S)-1-((S)-1-((1-(3-chlorobenzyl)-1H-imidazol-4-yl)amino)-1-oxopropan-2-yl)-4,4-difluoropiperidin-3-yl)pyridine 1-oxide] | 131 nM
C[C@@H](C(=O)Nc1cn(Cc2cc(F)c(Cl)c(F)c2)cn1)N1CCC(F)(F)[C@@H](c2cc[n+]([O-])cc2)C1 [Compound 44, 4-((S)-1-((S)-1-((1-(4-chloro-3,5-difluorobenzyl)-1H-imidazol-4-yl)amino)-1-oxopropan-2-yl)-4,4-difluoropiperidin-3-yl)pyridine 1-oxide] | 241 nM
C[C@@H](C(=O)Nc1cn(Cc2cc(F)c(Cl)cc2F)cn1)N1CCC(F)(F)[C@@H](c2cc[n+]([O-])cc2)C1 [Compound 45, 4-((S)-1-((S)-1-((1-(4-chloro-2,5-difluorobenzyl)-1H-imidazol-4-yl)amino)-1-oxopropan-2-yl)-4,4-difluoropiperidin-3-yl)pyridine 1-oxide] | 885 nM
C[C@@H](C(=O)Nc1cn(Cc2ccc(F)c(F)c2)cn1)N1CCC(F)(F)[C@@H](c2cc[n+]([O-])cc2)C1 [Compound 46, 4-((S)-1-((S)-1-((1-(3,4-difluorobenzyl)-1H-imidazol-4-yl)amino)-1-oxopropan-2-yl)-4,4-difluoropiperidin-3-yl)pyridine 1-oxide] | 210 nM
C[C@@H](C(=O)Nc1cn(Cc2ccc(Cl)c(F)c2)cn1)N1CCC(F)(F)[C@@H](c2cc[n+]([O-])cc2)C1 [Compound 47, 4-((S)-1-((S)-1-((1-(4-chloro-3-fluorobenzyl)-1H-imidazol-4-yl)amino)-1-oxopropan-2-yl)-4,4-difluoropiperidin-3-yl)pyridine 1-oxide] | 775 nM
C[C@@H](C(=O)Nc1cn(Cc2ccc(F)cc2Cl)cn1)N1CCC(F)(F)[C@@H](c2cc[n+]([O-])cc2)C1 [Compound 48, 4-((S)-1-((S)-1-((1-(2-chloro-4-fluorobenzyl)-1H-imidazol-4-yl)amino)-1-oxopropan-2-yl)-4,4-difluoropiperidin-3-yl)pyridine 1-oxide] | 214 nM
C[C@@H](C(=O)Nc1cn(Cc2cccc(F)c2F)cn1)N1CCC(F)(F)[C@@H](c2cc[n+]([O-])cc2)C1 [Compound 49, 4-((S)-1-((S)-1-((1-(2,3-difluorobenzyl)-1H-imidazol-4-yl)amino)-1-oxopropan-2-yl)-4,4-difluoropiperidin-3-yl)pyridine 1-oxide] | 53 nM
C[C@@H](C(=O)Nc1cn(Cc2cc(Cl)cc(Cl)c2)cn1)N1CCC(F)(F)[C@@H](c2cc[n+]([O-])cc2)C1 [Compound 50, 4-((S)-1-((S)-1-((1-(3,5-dichlorobenzyl)-1H-imidazol-4-yl)amino)-1-oxopropan-2-yl)-4,4-difluoropiperidin-3-yl)pyridine 1-oxide] | 45 nM
C[C@@H](C(=O)Nc1cn(Cc2cccc(F)c2Cl)cn1)N1CCC(F)(F)[C@@H](c2cc[n+]([O-])cc2)C1 [Compound 51, 4-((S)-1-((S)-1-((1-(2-chloro-3-fluorobenzyl)-1H-imidazol-4-yl)amino)-1-oxopropan-2-yl)-4,4-difluoropiperidin-3-yl)pyridine 1-oxide] | 34 nM
[2H]C([2H])(c1cc(F)cc(F)c1)n1cnc(NC(=O)[C@H](C)N2CCC(F)(F)[C@@H](c3cc[n+]([O-])cc3)C2)c1 [Compound 52, 4-((S)-1-((S)-1-((1-((3,5-difluorophenyl)methyl-d2)-1H-imidazol-4-yl)amino)-1-oxopropan-2-yl)-4,4-difluoropiperidin-3-yl)pyridine 1-oxide] | 22 nM
C[C@@H](C(=O)Nc1cn(Cc2cc(F)ccc2C(F)(F)F)cn1)N1CCC(F)(F)[C@@H](c2cc[n+]([O-])cc2)C1 [Compound 62, 4-((S)-4,4-difluoro-1-((S)-1-((1-(5-fluoro-2-(trifluoromethyl)benzyl)-1H-imidazol-4-yl)amino)-1-oxopropan-2-yl)piperidin-3-yl)pyridine 1-oxide] | 267 nM
C[C@@H](C(=O)Nc1cn(Cc2ccncc2Cl)cn1)N1CCC(F)(F)[C@@H](c2cc[n+]([O-])cc2)C1 [Compound 63, 4-((S)-1-((S)-1-((1-((3-chloropyridin-4-yl)methyl)-1H-imidazol-4-yl)amino)-1-oxopropan-2-yl)-4,4-difluoropiperidin-3-yl)pyridine 1-oxide] | 114 nM
C[C@@H](C(=O)Nc1cn(Cc2cccc(Cl)c2F)cn1)N1CCC(F)(F)[C@@H](c2cc[n+]([O-])cc2)C1 [Compound 64, 4-((S)-1-((S)-1-((1-(3-chloro-2-fluorobenzyl)-1H-imidazol-4-yl)amino)-1-oxopropan-2-yl)-4,4-difluoropiperidin-3-yl)pyridine 1-oxide] | 78 nM
C[C@@H](C(=O)Nc1cn(Cc2cc(F)c(F)cc2F)cn1)N1CCC(F)(F)[C@@H](c2cc[n+]([O-])cc2)C1 [Compound 65, 4-((S)-4,4-difluoro-1-((S)-1-oxo-1-((1-(2,4,5-trifluorobenzyl)-1H-imidazol-4-yl)amino)propan-2-yl)piperidin-3-yl)pyridine 1-oxide] | 504 nM
C[C@@H](C(=O)Nc1cn(Cc2cccc(Cl)c2Cl)cn1)N1CCC(F)(F)[C@@H](c2cc[n+]([O-])cc2)C1 [Compound 66, 4-((S)-1-((S)-1-((1-(2,3-dichlorobenzyl)-1H-imidazol-4-yl)amino)-1-oxopropan-2-yl)-4,4-difluoropiperidin-3-yl)pyridine 1-oxide] | 71 nM
C[C@@H](C(=O)Nc1cn(-c2cc(F)cc(F)c2)cn1)N1CCC(F)(F)[C@@H](c2cc[n+]([O-])cc2)C1 [Compound 75, 4-((S)-1-((S)-1-((1-(3,5-difluorophenyl)-1H-imidazol-4-yl)amino)-1-oxopropan-2-yl)-4,4-difluoropiperidin-3-yl)pyridine 1-oxide] | 513 nM
C[C@@H](C(=O)Nc1cn(Cc2cc(F)cc(F)c2)c(C(F)F)n1)N1CCC(F)(F)CC1 [Compound 492, (S)—N-(1-(3,5-difluorobenzyl)-2-(difluoromethyl)-1H-imidazol-4-yl)-2-(4,4-difluoropiperidin-1-yl)propanamide] | 35 nM
CNCc1cc(C2CN([C@@H](C)C(=O)Nc3cn4c(n3)CC[C@@H]4c3cc(F)cc(F)c3)CCC2(F)F)c[nH]c1=O (stereo partly drawn) [Compound 529, (2S)-2-(4,4-difluoro-3-(5-((methylamino)methyl)-6-oxo-1,6-dihydropyridin-3-yl)piperidin-1-yl)-N—((R)-5-(3,5-difluorophenyl)-6,7-dihydro-5H-pyrrolo[1,2-a]imidazol-2-yl)propanamide] | 80 nM
(2S)-2-[(3R)-4,4-difluoro-3-(1-methyl-6-oxopyridin-3-yl)piperidin-1-yl]-N-{1-[(3,5-difluorophenyl)methyl]imidazol-4-yl}propanamide [Compound 78] | > 30000 nM
(R)-2-((S)-4,4-difluoro-3-(6-oxo-1,6-dihydropyridin-3-yl)piperidin-1-yl)-N-(1-(3,5-difluorobenzyl)-1H-imidazol-4-yl)propanamide [Compound 79] | 18100 nM
(S)-2-((S)-4,4-difluoro-3-(6-oxo-1,6-dihydropyridin-3-yl)piperidin-1-yl)-N-(1-(3,5-difluorobenzyl)-1H-imidazol-4-yl)propanamide [Compound 76] | 2220 nM
